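Following 48 hours of exposure in 96-well plates, responses at five concentrations were used to interpolate endpoints linearly. GI50 marks 50% less growth.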 The source made the active and inactive calls. No stated cut-off is given here; in the data, active = GI50 up to about 1.1 µM and inactive = higher.
What was measured:
Assay in all cases: NCI-60 cell line screen, 48 h
HT-29 = system: HT-29
TK-10 = system: TK-10
M19-MEL = system: M19-MEL
OVCAR-3 = system: OVCAR-3
SK-OV-3 = system: SK-OV-3
UACC-62 = system: UACC-62
SW-620 = system: SW-620
SR = system: SR
IGROV-1 = system: IGROV-1
NCI-H23 = system: NCI-H23
M14 = system: M14
SNB-19 = system: SNB-19
UO-31 = system: UO-31
HCT-15 = system: HCT-15
OVCAR-8 = system: OVCAR-8
SF-295 = system: SF-295
HOP-92 = system: HOP-92
SN12C = system: SN12C
MOLT-4 = system: MOLT-4
OVCAR-4 = system: OVCAR-4
U-251 = system: U-251
KM12 = system: KM12
NCI-H522 = system: NCI-H522
XF498 = system: XF498
SK-MEL-2 = system: SK-MEL-2
RXF 393 = system: RXF 393
K562 = system: K562
DLD-1 = system: DLD-1
SK-MEL-5 = system: SK-MEL-5
CAKI-1 = system: CAKI-1
Malme-3M = system: Malme-3M
RXF 631 = system: RXF 631
HCC 2998 = system: HCC 2998
CCRF-CEM = system: CCRF-CEM
SK-MEL-28 = system: SK-MEL-28
KM-20L2 = system: KM-20L2
SNB-78 = system: SNB-78
COLO 205 = system: COLO 205
OVCAR-5 = system: OVCAR-5
786-0 = system: 786-0
SF-268 = system: SF-268
HOP-18 = system: HOP-18
DMS-114 = system: DMS-114
A498 = system: A498
LOX IMVI = system: LOX IMVI
DMS-273 = system: DMS-273
HOP-62 = system: HOP-62
NCI-H226 = system: NCI-H226
SF-539 = system: SF-539
NCI-H460 = system: NCI-H460
LXFL 529 = system: LXFL 529
UACC-257 = system: UACC-257
ACHN = system: ACHN
SNB-75 = system: SNB-75
A549 = system: A549
HCT-116 = system: HCT-116
HL-60 = system: HL-60
EKVX = system: EKVX

COc1ccccc1/C=C1\N=C(C)OC1=O
GI50 (HT-29): > 100 µM (inactive) | GI50 (TK-10): > 100 µM (inactive) | GI50 (M19-MEL): > 100 µM (inactive) | GI50 (OVCAR-3): > 100 µM (inactive) | GI50 (SK-OV-3): > 100 µM (inactive) | GI50 (UACC-62): > 100 µM (inactive) | GI50 (SW-620): > 100 µM (inactive) | GI50 (SR): > 100 µM (inactive) | GI50 (IGROV-1): > 100 µM (inactive) | GI50 (NCI-H23): > 100 µM (inactive) | GI50 (M14): > 100 µM (inactive) | GI50 (SNB-19): > 100 µM (inactive) | GI50 (UO-31): > 100 µM (inactive) | GI50 (HCT-15): > 100 µM | GI50 (OVCAR-8): > 100 µM (inactive) | GI50 (SF-295): > 100 µM (inactive) | GI50 (HOP-92): > 100 µM (inactive) | GI50 (SN12C): > 100 µM (inactive) | GI50 (MOLT-4): > 100 µM (inactive) | GI50 (OVCAR-4): > 100 µM (inactive) | GI50 (U-251): > 100 µM (inactive) | GI50 (KM12): > 100 µM (inactive) | GI50 (NCI-H522): > 100 µM (inactive) | GI50 (XF498): > 100 µM (inactive) | GI50 (SK-MEL-2): > 100 µM (inactive) | GI50 (RXF 393): > 100 µM (inactive) | GI50 (K562): > 100 µM (inactive) | GI50 (DLD-1): > 100 µM (inactive) | GI50 (SK-MEL-5): > 100 µM (inactive) | GI50 (CAKI-1): > 100 µM (inactive) | GI50 (Malme-3M): > 100 µM (inactive) | GI50 (RXF 631): > 100 µM (inactive) | GI50 (HCC 2998): > 100 µM (inactive) | GI50 (CCRF-CEM): 56 µM (inactive) | GI50 (SK-MEL-28): > 100 µM (inactive) | GI50 (KM-20L2): > 100 µM (inactive) | GI50 (SNB-78): > 100 µM (inactive) | GI50 (COLO 205): > 100 µM (inactive) | GI50 (OVCAR-5): > 100 µM (inactive)

COc1ccc(/N=N/c2c(-c3ccccc3)nn(C(=O)CC(=O)Nc3ccccc3Cl)c2-c2ccccc2)cc1
GI50 (HT-29): 47.1 µM (inactive) | GI50 (TK-10): 77.6 µM (inactive) | GI50 (786-0): > 100 µM (inactive) | GI50 (M19-MEL): > 100 µM (inactive) | GI50 (SF-268): 82.8 µM (inactive) | GI50 (OVCAR-3): 36.9 µM (inactive) | GI50 (HOP-18): > 100 µM (inactive) | GI50 (UACC-62): > 100 µM (inactive) | GI50 (SW-620): > 100 µM (inactive) | GI50 (SR): 2.82 µM (inactive) | GI50 (IGROV-1): > 100 µM (inactive) | GI50 (NCI-H23): > 100 µM (inactive) | GI50 (M14): > 100 µM (inactive) | GI50 (SNB-19): > 100 µM (inactive) | GI50 (DMS-114): 25.9 µM (inactive) | GI50 (A498): > 100 µM (inactive) | GI50 (LOX IMVI): > 100 µM (inactive) | GI50 (UO-31): 42.9 µM (inactive) | GI50 (HCT-15): 58.9 µM | GI50 (OVCAR-8): > 100 µM (inactive) | GI50 (SF-295): > 100 µM (inactive) | GI50 (HOP-92): 20.6 µM (inactive) | GI50 (DMS-273): > 100 µM (inactive) | GI50 (SN12C): > 100 µM (inactive) | GI50 (MOLT-4): 3.42 µM (inactive) | GI50 (HOP-62): > 100 µM (inactive) | GI50 (OVCAR-4): 57 µM (inactive) | GI50 (U-251): > 100 µM (inactive) | GI50 (KM12): 87.1 µM (inactive) | GI50 (NCI-H522): > 100 µM (inactive) | GI50 (NCI-H226): > 100 µM (inactive) | GI50 (SF-539): > 100 µM (inactive) | GI50 (NCI-H460): > 100 µM (inactive) | GI50 (RXF 393): > 100 µM (inactive) | GI50 (K562): 30.7 µM (inactive) | GI50 (LXFL 529): > 100 µM (inactive) | GI50 (DLD-1): > 100 µM (inactive) | GI50 (SK-MEL-5): > 100 µM (inactive) | GI50 (CAKI-1): > 100 µM (inactive) | GI50 (Malme-3M): > 100 µM (inactive) | GI50 (UACC-257): > 100 µM (inactive) | GI50 (RXF 631): > 100 µM (inactive) | GI50 (HCC 2998): > 100 µM (inactive) | GI50 (CCRF-CEM): 30.8 µM (inactive) | GI50 (ACHN): > 100 µM (inactive) | GI50 (SK-MEL-28): > 100 µM (inactive) | GI50 (SNB-75): 6.12 µM (inactive) | GI50 (A549): > 100 µM (inactive) | GI50 (KM-20L2): > 100 µM (inactive) | GI50 (SNB-78): > 100 µM (inactive) | GI50 (HCT-116): > 100 µM (inactive) | GI50 (COLO 205): > 100 µM (inactive) | GI50 (HL-60): 22.6 µM (inactive) | GI50 (EKVX): > 100 µM (inactive) | GI50 (OVCAR-5): 97.5 µM (inactive)
